Reference: BigSolDB 2.1

NC(N)=S
Conditions | solubility (mole fraction)
in ethanol, 292.65 K | 0.0224
in ethanol, 293.85 K | 0.0227
in ethanol, 299.45 K | 0.0256
in ethanol, 302.75 K | 0.0281
in ethanol, 305.85 K | 0.0295
in ethanol, 308.95 K | 0.0324
in ethanol, 309.4 K | 0.0331
in ethanol, 311.65 K | 0.0345
in ethanol, 312.55 K | 0.035
in ethanol, 312.75 K | 0.0353
in ethanol, 313.9 K | 0.0364
in ethanol, 314.35 K | 0.0375
in ethanol, 315.55 K | 0.0384
in ethanol, 316.4 K | 0.0386
in ethanol, 318.2 K | 0.0399
in ethanol, 320 K | 0.0422
in methanol, 298.65 K | 0.0534
in methanol, 301.45 K | 0.0565
in methanol, 304.35 K | 0.0606
in methanol, 307.85 K | 0.0643
in methanol, 309.05 K | 0.0667
in methanol, 311.25 K | 0.0702
in methanol, 314.55 K | 0.0761
in methanol, 319.45 K | 0.0821
in methanol, 321.25 K | 0.0872
